System: RBCs of healthy whole blood
Assay: RBC deformability (LORRCA elongation index), ex vivo TBHP oxidation of healthy whole blood
Assay type: cell-based, human
Conditions: for EI over vehicle control, ½ EImax and EImax: healthy donor 2, single amino acid treatments, in words
From the text: Whole blood from healthy African American and/or Hispanic donors was obtained from Research Blood Components, LLC based on the following donor selection criteria: Adult age (between 18 and 50 years), normal BMI (<30), and absence of other confounding clinical conditions. Whole blood from SCD donors were obtained from BioIVT based on the following donor selection criteria: Patients with genotypes HbSS, HbSC, HbS/β^0 and at least 1-2 months gap since last blood transfusion. Whole blood was shipped on ice on the same day as blood draw. Upon receipt, the blood sample was aliquoted and stored in the refrigerator until used for studies.
RBC deformability measurements were conducted with the Laser Optical Rotational Red Cell Analyzer (LORRCA) from RR Mechatronics in a temperature-controlled environment (37° C.). Briefly, an even layer of RBCs suspended in polyvinylpyrrolidone (PVP) is subjected to shear stress gradient (0.3 to 30 Pa) through two concentric cylinders and the resulting changes in RBC shape or deformability are measured by a laser beam diffraction pattern. The captured images of RBC shape in response to increasing shear stress are then analyzed by the LORRCA program to calculate Elongation Index (EI).
Healthy RBCs have higher deformability≥0.5 EI and SCD RBCs have lower deformability or EI values as studied by LORRCA ektacytometry in the field. […] The induced hemolysis model in this disclosure involves use of tert-butyl hydroperoxide (TBHP) to lower EI of RBCs.
The ex vivo hemolysis study disclosed here involves overnight treatment of whole blood with vehicle as a control and specific amino acids followed by rapid oxidation (5 min) with TBHP. Method for oxidation of whole blood with tert-butyl hydroperoxide has been used in prior literature (Diederich L, et al, Front Physiol. 2018 May 11; 9:332). RBC deformability or shape changes are then measured with LORRCA ektacytometry.
Whole blood aliquots stored in the fridge were brought up to room temperature while gently shaking on a rocker at low speed for an hour to ensure gradual and uniform suspension of red blood cells prior to deformability measurements. Vehicle control used in the study was 1× Dulbecco's […]) and amino acids disclosed herein were added (at either final […] or 2.5 mM concentration as indicated) to corresponding vehicle and amino acid treatment conditions. The samples were then incubated overnight at 37° C. Next day, 25 μL of whole blood was taken from each treatment condition and added to 5 mL Elon ISO viscous solution from RR Mechatronics. The sample was inverted 15-20 times to ensure proper mixing of the treated RBCs with the Elon ISO solution followed by loading the sample on LORRCA and capturing RBC deformability or shape measurements over the applied shear gradient. The remaining whole blood treatments were returned to incubator (37° C.) until deformability measurements were completed for all treatments. To the remaining whole blood treatment samples, TBHP solution (5.0-6.0 M in Decane, Sigma) was added at 2.5 mM final concentration from a 100 mM freshly prepared stock and incubated for further 5 min at 37° C. 25 μL of this TBHP-treated sample was immediately removed at the end of the 5 min incubation and added to the Elon ISO solution for RBC deformability measurement after oxidation. Included in the Tables 13-15 are EI measurements at ½ EImax shear stress 1.69 Pa and EImax shear stress 30 Pa from these studies and FIG. 1 captures EI measurements for all shear stress points for the indicated treatment conditions.

SMILES	effectiveness among all treatment groups (EI and fold change relative to vehicle) (healthy donor 2, in words)	EI over vehicle control, ½ EImax and EImax
NC(=O)CC[C@H](N)C(=O)O [Glutamine]	least effective	higher than the vehicle
N=C(N)NCCC[C@H](N)C(=O)O [Arginine]		higher than the vehicle
CC(=O)N[C@@H](CS)C(=O)O [N-Acetyl Cysteine, N-acetylcysteine]		higher than the vehicle
